# Reference: patent US20130136772A1, “REGULATION OF IMMUNE RESPONSE BY COLOCYNTHIN AND/OR ITS DERIVATIVES” (priority 2010, published 2013)
# Experiments:
# leucocyte migration = assay: In vivo leucocyte migration (carrageenan induced pleurisy); set-up: species or system mice; details: 5 mg/kg p.o.
# Description: Mice were injected with 0.2 ml of carrageenan (1% w/v) solution in sterilised normal saline into the pleural cavity by the modified method of Meacock and Kitchen, 1979 [Meacock S C R, Kitchen E A, (1979). Effect of non-steroidal antiinflammatory drug benoxaprofen on leukocyte migration. Journal of Pharmacy & Pharmacology; 31: 366-370]. The test drug was administered orally 1 h before and 6 h after the injection. After 24 h of carrageenan injection the pleural exudate was collected, volume measured and the total leucocyte count of the pleural fluid was determined (Table 3). Flowcytometry as a tool for evaluation of neutrophils is particularly useful because of their larger size than monocytes and lymphocytes when analysed on the forward scatter [FSc]. The percentage of these can be analysed by selectively ‘gating’ the neutrophils without physical separation of the cells (FIG. 4).
# [1] = test system: peritoneal murine macrophages; assay: Phagocytosis of heat killed Candida albicans by murine macrophages (in vitro); format: cell-based; details: 5 μg/ml
# Description: The method of Lehrer (1981) [Lehrer, R. I. Ingestion and destruction of Candida albicans. (1981) In: Methods for studying mono-nuclear phagocytes. Eds. Adams, D. O., Edelson, P. J. and Koren, H. (Academic Press, New York) 693-7081 was followed. The percentage and average number of Candida albicans cells (heatkilled) ingested by peritoneal murine macrophages was calculated. AD-B-63B was tested at the doses of 1, 2.5, Sand 10 μg/mL (Table 4).
# skin allograft rejection = assay: Skin allograft rejection time; format: in vivo, mice; details: for GRAFT REJECTION (Percent), delayed: 5 mg/kg p.o.
# Description: The modified method of Billingham and Medawar (1951) [[…]] was followed to study the skin allograft rejection time in mice. Graded doses of test material AD-B-63B were administered to the animals for 7 days and graft rejection time (GRT) was recorded by daily observation of epithelial skin layer survival. […] The basic mechanism involved in increase in graft rejection time is the suppression of T lymphocytes. After transplantation, MHC peptide complexes of the foreign organ are recognized by CD4+ and CD8+ T cells of the recipient as non-self antigens. These T cells differentiate into effector T cells and stimulate an immune response. After T cells differentiate and migrate to the site, macrophages and other inflammatory agents are mediated to the site. Cytotoxic T cells (CD8+) lyse the endothelial cells on the graft, CD4+ Th1 activate macrophages and CD4+ Th2 aid in antibody production.
# [2] = test system: cell mediated immune response (DTH); assay: SRBC induced delayed type hypersensitivity (DTH) response; format: in vivo, mice; details: 5 mg/kg p.o.
# Description: Test material was administered 2 h after immunization of mice by 200 μl of 5×10^9 SRBCs/ml. On 7th day, the thickness of the left hind foot was measured with spheromicrometer (0.01 mm pitch) and was considered as control. These mice were then challenged by injecting the 20 μl of 5×10^9 SRBCs/ml intradermally into the left hind footpad. The footpad thickness was measured again at 24 h after challenge (Doherty, 1981).
# [3] = test system: humoral antibody response; assay: SRBC induced haemagglutination antibody titre (humoral immune response); format: in vivo, mice
# Description: 200 μl of 5×10^9 SRBC/ml was used to immunize the animals on day 0. Animals were treated with graded doses of AD-B-63B i.e., 1, 2.5, 5 and 10mg/kg p.o. for next six consecutive days. Blood samples were collected on day 7 for antibody titre assay. Haemagglutination antibody titre was determined following the microtitration technique described by Nelson and Midenhall, 1967. The value of highest serum dilution causing visible Haemagglutination was taken as titre. BSA saline alone served as control (Table 7).
# TNF-α = assay: Intracellular TNF-α estimation in LPS activated murine neutrophils by flowcytometry; format: cell-based; details: 100 μg/ml
# Description: Flowcytometric studies were carried out to determine the anti-inflammatory effect of AD-B-63B on TNF-α cytokine expression in LPS activated murine neutrophils. Neutrophils play essential roles in host defence through their ability to clear bacterial infections. Their inappropriate activation contributes to a variety of inflammatory diseases, from the acute respiratory distress syndrome to asthma, chronic obstructive pulmonary disease and rheumatoid arthritis. TNF-α was chosen as the target for anti-inflammatory activity because of the fact that it is a pro-inflammatory cytokine and plays a major role in the pathogenesis of septic shock induced by LPS (Lipopolysaccharide) endotoxin injection [Remick, D. G.; Strieter, R. M.; Eskandari, M. K.; Nguyen, D. T.; Genord, M. A.; Raiford, C. L. Am. J. Path. 1990, 136, 49.]. LPS is an important triggering factor for in vivo systemic inflammatory response [Bone, R. C. Chest 1991, 100, 802]. LPS activates neutrophils via engagement of TLR4 (Toll-like receptor 4),[Sabroe, I.; Read, R. C.; Whyte, M. K. B.; Dockrell, D. H.; Vogel, S. N.; Dower, S. K. J. Immunol. 2003, 171, 1630.] resulting in the induction of a characteristic pro-inflammatory phenotype and prolongation of cell lifespan [Lee, A.; Whyte, M. K. B.; Haslett, C. J. Leukoc. Biol. 1993, 54, 283].
# The anti-inflammatory activity of AD-B-63B was measured by the estimation of intracellular tumor necrosis factor alpha (TNF-α) expression in a gated population of neutrophils [Clara, B., R. C. Arancha, G. M. Andre's, P. Atanasio, A. Julia, and O. Alberto. 2003. A new method for detecting TNF-α-secreting cells using direct immunofluorescence surface membrane stainings. J. Immuno. Methods 264:77-87.]. Murine blood was subjected to centrifugation at 250× g for 20 min. Three layers were formed: an upper layer of platelet-rich plasma, a buffy coat middle layer and a lower layer formed of red blood cells. The middle layer was removed and subjected to Histopaque 1077 (Sigma) gradient separation. The upper layer containing neutrophils was removed and transferred to FACS tubes (Becton Dickinson). Lipopolysaccharide (LPS) derived from Escherichia coli (Sigma) was added at a concentration of 10 ng/ml for the stimulation of the cells. AD-B-63B was added at graded concentrations of 0.5, 1, 2.5, 5, 10 and 20 μg/ml. Samples were incubated for 3 h at 37° C. ( Table 1) Controls consisted of LPS-stimulated cells (LPS control). Further processing was done by the addition of FACS permeabilizing solution (Becton Dickinson), followed by the addition of phycoerythrin (PE)-labeled anti-mouse TNF-α. (Becton Dickinson). The cells were incubated in the dark, and after being washed with sterile PBS, samples were resuspended in PBS (pH 7.4) and acquired directly on the flow cytometer (FACS CANTO; Becton Dickinson). A fluorescence trigger was set on the […] parameter of the gated neutrophil populations (10,000 events). Rolipram at 100 μg/ml was used as standard inhibitor of TNF-α in this study. Fluorescence compensation, data analysis and data presentation were performed using software (Becton Dickinson) (FIG. 1) [Pandey A, Bani S, Kaul S, Sangawan P L; 2010, Selective Th1 upregulation by ethyl acetate fraction of Labisia pumila; 132 (2010) 309-315].
# [4] = test system: Interleukin-1beta (IL-1β); assay: Extracellular IL-1β in LPS stimulated murine neutrophils (ELISA, in vitro); format: cell-based; details: 100 μg/ml
# Description: Neutrophils were separated from whole blood by Histopaque gradient method (Histopaque-No. 1077). Cell count was adjusted to approximately 10^5/[…]. Lipopolysaccharide, at the concentration of 10 ng/ml was used as stimulus in in-vitro studies. […] Extracellular IL-1β was estimated through ELISA (Table 2) [Weir, R. E., Morgan, A. R., Britton, W. J., Butlin, C. R., Dockrell, H. M., 1994. Development of a whole blood assay to measure T cell responses to leprosy: a new tool for immuno-epidemiological fields studies of leprosy immunity. J. Immunol. Methods. 176, 93; Hussain, R., Kaleem, A., Shahid, F., Dojki, M., Jamil, B., Mehmood, H., Dawood, G., Dockrell, H., 2002. Cytokine profiles using whole blood assays can discriminate between tuberculosis patients and healthy endemic controls in a BCG-vaccinated population. J. Immunol. Methods. 264, 95-108]
SMILES,% inhibition of exudate volume (leucocyte migration),% inhibition of total leucocyte count (leucocyte migration),"EXUDATE VOLUME Mean ± S.E. (leucocyte migration; 1 h before and 6 h after carrageenan, pleural exudate at 24 h) [mL]",% phagocytosis [in vitro study] Mean ± S.E. [1] [%],percent decrease in phagocytosis [1] [%],percent decrease in phagocytosis ([1]; listed as PREDNISOLONE),"GRAFT REJECTION (Percent), delayed (skin allograft rejection) [%]",REJECTION TIME Mean ± S.E. (skin allograft rejection; 5 mg/kg p.o. for 7 days) [days],"GRAFT REJECTION (Percent), delayed (skin allograft rejection; listed as PREDNISOLONE)",PERCENT INHIBITION (DTH response) [2],FOOT PAD THICKNESS Mean ± SE ([2]; 24 h after SRBC challenge) [mm],% ACTIVITY (decrease in antibody titre) ([3]; 5 mg/kg p.o.),"ANTIBODY TITRE MEAN ± S.E ([3]; 5 mg/kg p.o. for six days, blood on day 7)","Expression of intracellular TNF-alpha, Mean ± S.E (TNF-α; LPS 10 ng/ml, 3 h)","inhibition at 100 µg/mL (TNF-α; Mus musculus, Neutrophil, read-out: % TNF-alpha inhibition against LPS control) [%]",% activity IL-1β expression against LPS control (decrease) [4],"Concentration of IL-1β produced Mean ± S.E. ([4]; LPS 10 ng/ml, 4 hr) [pg/mL]"
"C[C@]12C=CC(=O)C=C1CC[C@@H]1[C@@H]2[C@@H](O)C[C@@]2(C)[C@H]1CC[C@]2(O)C(=O)CO [Prednisolone, reference compound]",(47.27%↓),(33.23%↓),0.58 ± 0.28,15.99 ± 2.17,40.35,(40.35%↓),39.69,18.16 ± 0.16,39.69↓ %,35.86↓ %,0.59 ± 0.05,35.22↓ %,3.99 ± 0.22,–,–,–,–
"COc1ccc(C2CNC(=O)C2)cc1OC1CCCC1 (centres unmarked) [Rolipram, reference compound]",–,–,–,–,–,–,–,–,–,–,–,–,–,0.74 ± 0.04,72.5,52.85↓ %,63.52 ± 2.07
